Data published in patent US20250000088A1, “ANT CONTROL AGENT AND ANT CONTROL METHOD” (Shin-Etsu Chemical Co., Ltd., priority 2021, published 2025).

Test system: worker ants of Myrmica ruginodis
Assay: Bioassay for selection of odor source (two arms of a four-arm olfactometer)
Assay type: in vivo
Conditions: 10 ants per group, 3 repetitions, max 5 min
Method: Bioassays were performed using the worker ants of Myrmica ruginodis which had been collected in Niigata Prefecture in Japan. The bioassays were performed using only two arms of a four-arm olfactometer (classic 4-Choice Arena Orfactometer, Sigma Scientific LLC) as shown in FIG. 5. Pure air filled in a 47 L gas cylinder was used as an air source, and the air flow rate was adjusted by a regulator. […] The ants were used as each group consisting of 10 ants, the test was started at the time of entering the ants from the inlet 1, and the selection for the odor source was made for a maximum of 5 minutes per repetition. The choice of odor source was determined by counting the number of ants in the insect separation chamber 2 at the end of the test. Five minutes after the start of the experiment, and when all 10 ants selected any one of odor sources, the results were recorded, and the tested ants were removed. Then three repetitions (using a total of 30 ants) of experiments were performed. Each cotton swab serving as an odor source was installed in each odor source installation adapter 3, and was replaced with a new one at every repetition. The glassware was washed after each repetition, and the odor source installation adapter for installing an odor source in the olfactometer was selected randomly. […]

CCCCCC(=O)CC [3-octanone] was tested, and the “number of ants gathering at the odor source (choice of odor source)” value (cotton swab containing 1.1 mg of mixture (3-octanone diluted with distilled water with Triton X-100) vs distilled water control, FIG. 2) was “gathered in the alarm pheromone compound treatment section” and the “number of ants gathering at the odor source (choice of odor source)” value (cotton swab containing 7.6 mg of mixture (3-octanone diluted in distilled water with Triton X-100) vs distilled water control, FIG. 1) was “gathered in the control section, while avoiding the alarm pheromone compound treatment section”.
